Measurements published in ChEMBL document CHEMBL4665626, “Excellent antitumor and antimetastatic activities based on novel coumarin/pyrazole oxime hybrids” (Eur J Med Chem, 2019).
pIC50: −log10 of the molar value. Counter-ions that a name gives are not always drawn. Activity calls are given as the source filed them. No cut-off for these calls is given here.

How the values were obtained:
[1] = test system: HepG2; assay: Antiproliferative activity against human HepG2 cells assessed as reduction in cell viability incubated for 72 hrs by MTT assay; format: functional, cell-based; conditions: HepG2, 72 h
[2] = test system: U-87 MG; assay: Antiproliferative activity against human U87 cells assessed as reduction in cell viability incubated for 72 hrs by MTT assay; format: functional, cell-based, U-87MG ATCC
[3] = test system: SMMC-7721; assay: Antiproliferative activity against human SMMC-7721 cells assessed as reduction in cell viability incubated for 72 hrs by MTT assay; format: functional, cell-based; conditions: SMMC-7721, 72 h
[4] = Antiproliferative activity against human NCI-H1299 cells assessed as reduction in cell viability incubated for 72 hrs by MTT assay; format: functional, cell-based; conditions: NCI-H1299, 72 h
[5] = test system: SMMC-7721; assay: Inhibition of epithelial-mesenchymal transition in human SMMC-7721 cells assessed as decrease in TGF-beta1-induced vimentin expression at 0.5 uM incubated for 48 hrs by immunofluorescence staining based laser-scanning confocal microscope; format: functional, cell-based
[6] = test system: SMMC-7721; assay: Inhibition of epithelial-mesenchymal transition in human SMMC-7721 cells assessed as decrease in TGF-beta1-induced MMP9 expression at 0.5 uM incubated for 48 hrs by Western blot analysis; format: functional, cell-based
[7] = test system: SMMC-7721; assay: Inhibition of epithelial-mesenchymal transition in human SMMC-7721 cells assessed as decrease in TGF-beta1-induced MMP9 expression at 0.5 uM incubated for 48 hrs by immunofluorescence staining based laser-scanning confocal microscope; format: functional, cell-based
[8] = test system: SMMC-7721; assay: Inhibition of epithelial-mesenchymal transition in human SMMC-7721 cells assessed as increase in TGF-beta1 reduced E-cadherin expression at 0.5 uM incubated for 48 hrs by Western blot analysis; format: functional, cell-based
[9] = test system: SMMC-7721; assay: Inhibition of epithelial-mesenchymal transition in human SMMC-7721 cells assessed as increase in TGF-beta1 reduced E-cadherin expression at 0.5 uM incubated for 48 hrs by Immunofluorescence staining based laser-scanning confocal microscope; format: functional, cell-based
[10] = test system: SMMC-7721; assay: Inhibition of epithelial-mesenchymal transition in human SMMC-7721 cells assessed as decrease in TGF-beta1-induced vimentin expression at 0.5 uM incubated for 48 hrs by Western blot analysis; format: functional, cell-based
[11] = test system: SMMC-7721; assay: Inhibition of TGF-beta1-induced cell migration in human SMMC-7721 cells at 0.5 uM incubated for 24 hrs by wound healing assay relative to control; format: functional
[12] = test system: SMMC-7721; assay: Inhibition of TGF-beta1-induced cell invasion in human SMMC-7721 cells at 0.5 uM incubated for 2 days by crystal violet staining based matrigel transwell migration assay; format: functional; conditions: time 2.0 day

SMILES | pIC50 [1] | pIC50 [2] | pIC50 [3] | pIC50 [4] | inhibition [5] | inhibition [6] | inhibition [7] | inhibition [8] | inhibition [9] | inhibition [10] | inhibition [11] | inhibition [12]
Cc1nn(C)c(Oc2ccc(OC(F)(F)F)cc2)c1/C=N\OCCCCCCOc1cc2oc(=O)cc(C)c2cc1Cl | 5.09 | 5.02 | 5.20 | 4.92 |  |  |  |  |  |  |  | 
COc1cccc2c1C(=O)c1c(O)c3c(c(O)c1C2=O)C[C@@](O)(C(=O)CO)C[C@@H]3O[C@H]1C[C@H](N)[C@H](O)[C@H](C)O1 [DOXORUBICIN HYDROCHLORIDE] | 5.63 | 5.37 |  |  | Active | Active | Active | Active | Active | Active | Active | Active
Cc1nn(C)c(Oc2cccc(C(F)(F)F)c2)c1/C=N\OCCCCCCOc1cc2oc(=O)cc(C)c2cc1Cl | < 4.60 | 4.63 | 4.61 | < 4.60 |  |  |  |  |  |  |  | 
O=c1[nH]cc(F)c(=O)[nH]1 [FLUOROURACIL] | 4.50 | 4.34 |  | 4.38 |  |  |  |  |  |  |  | 
